In patent US20110301200A1, “THYROID RECEPTOR LIGANDS” (CADILA HEALTHCARE LIMITED, priority 2008, published 2011):
pEC50: −log10 of the molar value.

Assays:
TR-α = molecular target: T1, TR-α (Homo sapiens, UniProt P10827); assay: In vitro TR-α activity (in-house protocol); format: cell-based; details: for fold induction at 0.001 µM: Conc. 1 nM; for fold induction at 0.001 µM / fold induction at 0.01 µM / fold induction at 0.1 µM / fold induction at 1 µM: read-out: TR-α Fold Induction w.r.t T3(100 nm); for fold induction at 0.01 µM: Conc. 10 nM; for fold induction at 0.1 µM: Conc. 100 nM; for fold induction at 1 µM: Conc. 1000 nM
T1 sequence (P10827 1-410 isoform P10827-2): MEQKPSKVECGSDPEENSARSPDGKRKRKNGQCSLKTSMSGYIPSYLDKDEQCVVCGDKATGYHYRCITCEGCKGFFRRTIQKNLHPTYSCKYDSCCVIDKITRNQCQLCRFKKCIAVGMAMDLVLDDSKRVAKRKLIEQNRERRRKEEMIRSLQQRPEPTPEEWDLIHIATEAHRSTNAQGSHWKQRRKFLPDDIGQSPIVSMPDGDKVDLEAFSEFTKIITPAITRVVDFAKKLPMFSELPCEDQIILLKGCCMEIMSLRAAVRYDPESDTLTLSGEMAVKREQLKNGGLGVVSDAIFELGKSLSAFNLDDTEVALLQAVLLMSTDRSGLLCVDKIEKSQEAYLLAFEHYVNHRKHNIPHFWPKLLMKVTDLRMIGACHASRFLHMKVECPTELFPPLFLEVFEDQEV
Method: (§1) In vitro TR-α & TR-β activities were determined as per in-house protocols and the results of representative compounds are provided in tables 1 & 2 below as a proof of the efficacies of the novel class of compounds disclosed above.

TR-β = molecular target: T2, TR-β (Homo sapiens, UniProt P10828); assay: In vitro TR-β activity (in-house protocol); format: cell-based; details: for fold induction at 0.001 µM: Conc. 1 nM; for fold induction at 0.001 µM / fold induction at 0.01 µM / fold induction at 0.1 µM / fold induction at 1 µM: read-out: TR-β Fold Induction w.r.t T3(100 nm); for fold induction at 0.01 µM: Conc. 10 nM; for fold induction at 0.1 µM: Conc. 100 nM; for fold induction at 1 µM: Conc. 1000 nM
T2 sequence (P10828 1-461): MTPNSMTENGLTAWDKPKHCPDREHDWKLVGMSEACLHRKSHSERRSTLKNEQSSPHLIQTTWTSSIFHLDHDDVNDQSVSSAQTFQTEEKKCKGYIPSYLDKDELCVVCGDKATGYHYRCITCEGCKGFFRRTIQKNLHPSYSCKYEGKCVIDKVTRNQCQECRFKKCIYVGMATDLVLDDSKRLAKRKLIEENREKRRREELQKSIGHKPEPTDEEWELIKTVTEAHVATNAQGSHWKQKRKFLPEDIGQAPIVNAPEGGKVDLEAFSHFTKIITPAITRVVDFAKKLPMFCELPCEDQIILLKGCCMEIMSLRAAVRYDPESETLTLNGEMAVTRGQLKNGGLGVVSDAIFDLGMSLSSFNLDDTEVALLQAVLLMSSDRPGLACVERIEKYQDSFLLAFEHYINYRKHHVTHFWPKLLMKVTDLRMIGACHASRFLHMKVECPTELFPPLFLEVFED
Method: as §1

Row | SMILES | fold induction at 0.001 µM (TR-α) | fold induction at 0.01 µM (TR-α) | fold induction at 0.1 µM (TR-α) | fold induction at 1 µM (TR-α) | fold induction at 0.001 µM (TR-β) | fold induction at 0.01 µM (TR-β) | fold induction at 0.1 µM (TR-β) | fold induction at 1 µM (TR-β) | pEC50 (TR-α) | pEC50 (TR-β)
1 | CC(ON=Cc1cc(Br)c(Oc2ccc(O)c(S(=O)(=O)N[C@@H]3C[C@H]4CC[C@@H]3C4)c2)c(Br)c1)C(=O)O (stereo partly drawn) [Example 40, 2-(((4-(3-(N-((1R,2R,4S)-bicyclo[2.2.1]heptan-2-yl)sulfamoyl)-4-hydroxyphenoxy)-3,5-dibromobenzylidene)amino)oxy)propanoic acid] | 10.7 | 9.07 | 10.1 | 16.7 | 10.1 | 9.01 | 10.9 | 36.5 | – | –
2 | CCC(C)c1cc(Oc2c(Br)cc(C=NOC(C)(C)C(=O)O)cc2Br)ccc1O (stereo not shown) [Example 15, 2-(((3,5-dibromo-4-(3-(sec-butyl)-4-hydroxyphenoxy)benzylidene)amino)oxy)-2-methyl propanoic acid] | 35.7 | 77.7 | 119 | 123 | 23 | 84.3 | 118 | 72.3 | – | –
3 | CC(ON=Cc1cc(Cl)c(Oc2ccc(O)c(C(C)C)c2)c(Cl)c1)C(=O)O (stereo not shown) [Example 8, 2-(((3,5-dichloro-4-(4-hydroxy-3-isopropylphenoxy)benzylidene)amino)oxy)propanoic acid] | 12.4 | 29.5 | 75 | 76.6 | 16.3 | 45.4 | 85.2 | 89 | – | –
4 | O=C(O)CON=Cc1cc(Br)c(Oc2ccc(O)c(C(=O)c3cccc(Cl)c3)c2)c(Br)c1 [Example 33, 2-(((3,5-dibromo-4-(3-(3-chlorobenzoyl)-4-hydroxyphenoxy)benzylidene)amino)oxy)acetic acid] | 18.7 | 32.2 | 52.1 | 74 | 14 | 30.1 | 72.5 | 62.1 | – | –
5 | CC(C)NS(=O)(=O)c1cc(Oc2c(Br)cc(C=NOC(C)C(=O)O)cc2Br)ccc1O (stereo not shown) [Example 37, 2-(((3,5-dibromo-4-(4-hydroxy-3-(N-isopropylsulfamoyl)phenoxy)benzylidene)amino)oxy)propanoic acid] | 11.2 | 11.5 | 17.6 | 45.6 | 8.41 | 9.07 | 17.7 | 60.5 | – | –
6 | CCC(C)c1cc(Oc2c(Cl)cc(C=NOC(C)C(=O)O)cc2Cl)ccc1O (stereo not shown) [Example 23, 2-(((4-(3-(sec-butyl)-4-hydroxyphenoxy)-3,5-dichlorobenzylidene)amino)oxy)propanoic acid] | 22.6 | 48.2 | 92.2 | 138 | 19.2 | 53.1 | 78.9 | 90 | – | –
7 | O=C(O)CON=Cc1cc(Cl)c(Oc2ccc(O)c(Cc3ccccc3)c2)c(Cl)c1 [Example 5, 2-(((4-(3-benzyl-4-hydroxyphenoxy)-3,5-dichlorobenzylidene)amino)oxy)acetic acid] | 14.2 | 10.8 | 28.3 | 57 | 14.8 | 12 | 43.6 | 80.5 | – | –
8 | O=C(O)CON=Cc1cc(Br)c(Oc2ccc(O)c(C(=O)c3ccc(Cl)cc3)c2)c(Br)c1 [Example 28, 2-(((3,5-dibromo-4-(3-(4-chlorobenzoyl)-4-hydroxyphenoxy)benzylidene)amino)oxy)acetic acid] | 16.2 | 25 | 40.4 | 54.5 | 10.2 | 26.4 | 61.7 | 58.9 | – | –
9 | O=C(O)CON=Cc1cc(Br)c(Oc2ccc(O)c(Cc3ccccc3)c2)c(Br)c1 [Example 9, 2-(((4-(3-benzyl-4-hydroxyphenoxy)-3,5-dibromobenzylidene)amino)oxy)acetic acid] | 10.7 | 10.7 | 23.8 | 64.8 | 11.5 | 17.6 | 60.2 | 98.8 | – | –
10 | CCC(ON=Cc1cc(Br)c(Oc2ccc(O)c(C(C)C)c2)c(Br)c1)C(=O)O (stereo not shown) [Example 13, 2-(((3,5-dibromo-4-(4-hydroxy-3-isopropylphenoxy)benzylidene)amino)oxy)butanoic acid] | 29.6 | 63.9 | 76.8 | 56.9 | 23.1 | 73.4 | 86.7 | 94.6 | – | –
11 | CCC(C)c1cc(Oc2c(Cl)cc(C=NOCC(=O)O)cc2Cl)ccc1O (stereo not shown) [Example 2, 2-(((4-(3-(sec-butyl)-4-hydroxyphenoxy)-3,5-dichlorobenzylidene)amino)oxy)acetic acid] | 10.2 | 26.7 | 66.7 | 108 | 14 | 34.5 | 79.4 | 115 | – | –

The next lines start with the values.

Row | fold induction at 0.001 µM (TR-α) | fold induction at 0.01 µM (TR-α) | fold induction at 0.1 µM (TR-α) | fold induction at 1 µM (TR-α) | fold induction at 0.001 µM (TR-β) | fold induction at 0.01 µM (TR-β) | fold induction at 0.1 µM (TR-β) | fold induction at 1 µM (TR-β) | pEC50 (TR-α) | pEC50 (TR-β) | SMILES
12 | 14.1 | 11.8 | 17.9 | 39.8 | 10.9 | 9.74 | 21.4 | 47.5 | – | – | CC(ON=Cc1cc(Br)c(Oc2ccc(O)c(C(O)c3cccc(Cl)c3)c2)c(Br)c1)C(=O)O (stereo not shown) [Example 34, 2-(((3,5-dibromo-4-(3-((3-chlorophenyl)(hydroxy)methyl)-4-hydroxyphenoxy)benzylidene)amino)oxy)propanoic acid]
13 | – | – | – | – | – | – | – | – | 8.28 | 8.54 | O=C(O)CON=Cc1cc(Br)c(Oc2ccc(O)c(-c3ccccc3)c2)c(Br)c1 [Example 7, 2-(((3,5-dibromo-4-((6-hydroxy-[1,1′-biphenyl]-3-yl)oxy)benzylidene)amino)oxy)acetic acid]
14 | 16.2 | 32.8 | 70.2 | 49.4 | 16.1 | 39.3 | 73.8 | 65.3 | – | – | CC(ON=Cc1cc(Br)c(Oc2ccc(O)c(-c3ccccc3)c2)c(Br)c1)C(=O)O (stereo not shown) [Example 11, 2-(((3,5-dibromo-4-((6-hydroxy-[1,1′-biphenyl]-3-yl)oxy)benzylidene)amino)oxy)propanoic acid]
15 | 9.45 | 13.1 | 34.5 | 74.3 | 8.98 | 14.8 | 46 | 98.6 | – | – | CC(C)(ON=Cc1cc(Br)c(Oc2ccc(O)c(-c3ccccc3)c2)c(Br)c1)C(=O)O [Example 20, 2-(((3,5-dibromo-4-((6-hydroxy-[1,1′-biphenyl]-3-yl)oxy)benzylidene)amino)oxy)-2-methyl propanoic acid]
16 | 13.8 | 28.5 | 79 | 134 | 11.5 | 37.1 | 59.9 | 86.7 | – | – | CCc1cc(Oc2c(Br)cc(C=NOC(C)C(=O)O)cc2Br)ccc1O (stereo not shown) [Example 25, 2-(((3,5-dibromo-4-(3-ethyl-4-hydroxyphenoxy)benzylidene)amino)oxy)propanoic acid]
17 | – | – | – | – | – | – | – | – | 6.84 | 6.78 | CC(ON=Cc1cc(Br)c(Oc2ccc(O)c(C(=O)c3cccc(Cl)c3)c2)c(Br)c1)C(=O)O (stereo not shown) [Example 30, 2-(((3,5-dibromo-4-(3-(3-chlorobenzoyl)-4-hydroxyphenoxy)benzylidene)amino)oxy)propanoic acid]
